Experimental data from US7759331B2, “Pyridine-containing macroheterococylic compounds as kinase inhibitors” (Janssen Pharmaceutica NV, priority 2006, dated 2010).

Experiments:
Assay in all cases: Protein kinase selectivity panel
Assay type in all cases: biochemical
Conditions in all cases: 1.0 μM compound, 10 μM ATP
[1] = molecular target: T1, PDK1(h) (Homo sapiens, UniProt O15530)
T1 sequence (O15530 1-556): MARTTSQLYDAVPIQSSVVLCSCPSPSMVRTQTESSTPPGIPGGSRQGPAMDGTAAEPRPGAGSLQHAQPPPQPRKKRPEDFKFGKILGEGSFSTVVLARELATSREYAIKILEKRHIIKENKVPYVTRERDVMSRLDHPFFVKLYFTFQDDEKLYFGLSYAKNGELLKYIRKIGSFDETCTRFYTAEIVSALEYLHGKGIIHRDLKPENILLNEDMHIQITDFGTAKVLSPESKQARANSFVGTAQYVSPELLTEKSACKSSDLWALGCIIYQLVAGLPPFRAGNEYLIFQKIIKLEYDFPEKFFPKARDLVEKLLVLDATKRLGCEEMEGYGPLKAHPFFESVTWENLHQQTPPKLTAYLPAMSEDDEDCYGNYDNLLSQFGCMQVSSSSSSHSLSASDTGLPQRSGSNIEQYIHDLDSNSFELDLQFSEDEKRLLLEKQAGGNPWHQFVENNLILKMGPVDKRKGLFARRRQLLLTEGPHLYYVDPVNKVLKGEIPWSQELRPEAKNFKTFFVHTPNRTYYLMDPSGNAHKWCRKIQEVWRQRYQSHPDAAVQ
Summary of the method: (§1)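 Substrate phosphorylation by each kinase is measured in the presence of 1.0 μM compound, using 10 μM ATP under time-linear conditions.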

[2] = molecular target: Tie2(h) (Homo sapiens, UniProt Q02763)
Summary of the method: as §1

[3] = molecular target: Fes(h) (Homo sapiens, UniProt P07332)
Summary of the method: as §1

[4] = molecular target: T2, EphB4(h) (Homo sapiens, UniProt P54760)
T2 sequence (P54760 16-987): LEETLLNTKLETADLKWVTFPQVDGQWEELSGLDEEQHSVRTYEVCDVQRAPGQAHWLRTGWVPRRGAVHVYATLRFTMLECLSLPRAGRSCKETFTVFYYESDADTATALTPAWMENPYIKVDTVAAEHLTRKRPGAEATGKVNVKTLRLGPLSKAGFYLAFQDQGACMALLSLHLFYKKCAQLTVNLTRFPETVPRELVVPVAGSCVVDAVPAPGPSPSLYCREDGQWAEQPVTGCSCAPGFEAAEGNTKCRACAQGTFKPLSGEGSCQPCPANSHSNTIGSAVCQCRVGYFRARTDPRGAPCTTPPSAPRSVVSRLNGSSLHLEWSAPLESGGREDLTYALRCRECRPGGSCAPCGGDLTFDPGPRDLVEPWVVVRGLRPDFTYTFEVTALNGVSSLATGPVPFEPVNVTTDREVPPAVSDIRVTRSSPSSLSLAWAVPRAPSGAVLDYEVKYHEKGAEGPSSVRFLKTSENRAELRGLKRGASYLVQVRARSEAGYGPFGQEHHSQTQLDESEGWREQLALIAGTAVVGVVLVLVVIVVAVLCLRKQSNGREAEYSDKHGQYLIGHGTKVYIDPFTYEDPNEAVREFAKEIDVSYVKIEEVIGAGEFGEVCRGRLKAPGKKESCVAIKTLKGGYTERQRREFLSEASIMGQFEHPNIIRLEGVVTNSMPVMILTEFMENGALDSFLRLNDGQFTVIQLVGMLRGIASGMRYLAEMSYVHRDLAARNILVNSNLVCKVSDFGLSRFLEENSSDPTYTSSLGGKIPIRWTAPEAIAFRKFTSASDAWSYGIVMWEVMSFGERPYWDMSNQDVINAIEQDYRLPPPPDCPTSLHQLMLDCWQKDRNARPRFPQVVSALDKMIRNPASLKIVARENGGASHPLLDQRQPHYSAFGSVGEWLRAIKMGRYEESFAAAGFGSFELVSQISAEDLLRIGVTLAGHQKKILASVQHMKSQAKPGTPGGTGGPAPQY
Summary of the method: as §1

[5] = molecular target: T3, PKCζ(h) (Homo sapiens, UniProt Q05513)
T3 sequence (Q05513 1-592): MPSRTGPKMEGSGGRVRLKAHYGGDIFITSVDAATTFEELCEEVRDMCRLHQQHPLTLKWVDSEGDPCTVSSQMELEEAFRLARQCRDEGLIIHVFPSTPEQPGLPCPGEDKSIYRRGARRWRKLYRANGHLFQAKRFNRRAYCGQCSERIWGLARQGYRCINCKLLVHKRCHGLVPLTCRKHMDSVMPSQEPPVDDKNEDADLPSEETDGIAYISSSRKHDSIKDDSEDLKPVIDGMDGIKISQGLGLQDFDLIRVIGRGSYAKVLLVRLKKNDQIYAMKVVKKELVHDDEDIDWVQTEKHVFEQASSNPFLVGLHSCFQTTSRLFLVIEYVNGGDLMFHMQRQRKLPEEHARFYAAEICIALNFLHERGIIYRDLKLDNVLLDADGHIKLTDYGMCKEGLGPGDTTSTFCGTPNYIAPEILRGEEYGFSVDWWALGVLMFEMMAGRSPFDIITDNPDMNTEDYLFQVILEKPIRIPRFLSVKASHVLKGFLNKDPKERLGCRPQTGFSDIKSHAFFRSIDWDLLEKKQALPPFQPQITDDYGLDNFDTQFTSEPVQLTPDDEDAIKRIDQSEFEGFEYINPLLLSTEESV
Summary of the method: as §1

[6] = molecular target: JNK2α2(h) (Homo sapiens, UniProt P45984)
Summary of the method: as §1

[7] = molecular target: T4, Aurora-A(h) (Homo sapiens, UniProt O14965)
T4 sequence (O14965 1-403): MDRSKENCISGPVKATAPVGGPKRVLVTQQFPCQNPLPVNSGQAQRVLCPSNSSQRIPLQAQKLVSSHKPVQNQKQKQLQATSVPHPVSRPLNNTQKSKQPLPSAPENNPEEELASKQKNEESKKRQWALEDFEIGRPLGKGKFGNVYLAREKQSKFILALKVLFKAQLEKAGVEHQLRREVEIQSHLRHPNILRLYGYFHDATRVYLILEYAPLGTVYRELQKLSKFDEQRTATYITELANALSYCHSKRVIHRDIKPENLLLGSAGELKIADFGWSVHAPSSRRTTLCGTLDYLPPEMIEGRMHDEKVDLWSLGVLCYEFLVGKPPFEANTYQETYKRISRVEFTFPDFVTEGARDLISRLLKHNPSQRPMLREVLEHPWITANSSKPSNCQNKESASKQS
Summary of the method: as §1

[8] = molecular target: Met(h) (Homo sapiens, UniProt P08581)
Summary of the method: as §1

JNK2α2(h), sequence (P45984 whole entry): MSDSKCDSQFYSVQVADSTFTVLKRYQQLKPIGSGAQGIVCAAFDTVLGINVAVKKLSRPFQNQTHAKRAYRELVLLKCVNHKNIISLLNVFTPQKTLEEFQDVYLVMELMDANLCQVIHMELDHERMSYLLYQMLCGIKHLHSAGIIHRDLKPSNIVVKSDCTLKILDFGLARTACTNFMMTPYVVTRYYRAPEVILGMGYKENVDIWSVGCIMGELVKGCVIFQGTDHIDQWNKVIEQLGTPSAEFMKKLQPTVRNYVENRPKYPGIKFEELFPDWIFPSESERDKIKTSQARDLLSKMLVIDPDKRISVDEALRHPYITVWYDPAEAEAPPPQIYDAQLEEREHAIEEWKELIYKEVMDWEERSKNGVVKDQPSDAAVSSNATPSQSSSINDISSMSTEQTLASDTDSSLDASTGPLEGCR
Fes(h), sequence (P07332 whole entry): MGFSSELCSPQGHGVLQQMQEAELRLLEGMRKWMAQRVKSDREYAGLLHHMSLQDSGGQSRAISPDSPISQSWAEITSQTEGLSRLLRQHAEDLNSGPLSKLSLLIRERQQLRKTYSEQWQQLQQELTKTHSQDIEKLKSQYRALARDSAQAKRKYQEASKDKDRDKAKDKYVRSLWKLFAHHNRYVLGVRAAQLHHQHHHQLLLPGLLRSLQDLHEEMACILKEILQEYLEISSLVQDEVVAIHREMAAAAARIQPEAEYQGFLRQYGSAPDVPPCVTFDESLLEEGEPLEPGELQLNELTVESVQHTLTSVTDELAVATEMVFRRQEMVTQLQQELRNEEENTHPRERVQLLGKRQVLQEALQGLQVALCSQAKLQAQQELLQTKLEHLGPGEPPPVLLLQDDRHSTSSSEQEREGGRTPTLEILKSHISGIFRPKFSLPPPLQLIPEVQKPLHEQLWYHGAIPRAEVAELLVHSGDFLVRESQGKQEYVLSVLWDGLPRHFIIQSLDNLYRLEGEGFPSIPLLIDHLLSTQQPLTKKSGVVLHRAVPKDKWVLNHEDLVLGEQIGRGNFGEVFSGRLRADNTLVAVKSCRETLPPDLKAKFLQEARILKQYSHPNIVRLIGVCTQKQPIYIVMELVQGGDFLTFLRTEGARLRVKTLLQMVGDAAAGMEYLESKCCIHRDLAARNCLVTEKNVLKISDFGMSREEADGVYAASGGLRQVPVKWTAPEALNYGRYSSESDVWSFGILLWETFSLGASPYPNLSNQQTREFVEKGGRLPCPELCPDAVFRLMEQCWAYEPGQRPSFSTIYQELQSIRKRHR
Met(h), sequence (P08581 25-1390): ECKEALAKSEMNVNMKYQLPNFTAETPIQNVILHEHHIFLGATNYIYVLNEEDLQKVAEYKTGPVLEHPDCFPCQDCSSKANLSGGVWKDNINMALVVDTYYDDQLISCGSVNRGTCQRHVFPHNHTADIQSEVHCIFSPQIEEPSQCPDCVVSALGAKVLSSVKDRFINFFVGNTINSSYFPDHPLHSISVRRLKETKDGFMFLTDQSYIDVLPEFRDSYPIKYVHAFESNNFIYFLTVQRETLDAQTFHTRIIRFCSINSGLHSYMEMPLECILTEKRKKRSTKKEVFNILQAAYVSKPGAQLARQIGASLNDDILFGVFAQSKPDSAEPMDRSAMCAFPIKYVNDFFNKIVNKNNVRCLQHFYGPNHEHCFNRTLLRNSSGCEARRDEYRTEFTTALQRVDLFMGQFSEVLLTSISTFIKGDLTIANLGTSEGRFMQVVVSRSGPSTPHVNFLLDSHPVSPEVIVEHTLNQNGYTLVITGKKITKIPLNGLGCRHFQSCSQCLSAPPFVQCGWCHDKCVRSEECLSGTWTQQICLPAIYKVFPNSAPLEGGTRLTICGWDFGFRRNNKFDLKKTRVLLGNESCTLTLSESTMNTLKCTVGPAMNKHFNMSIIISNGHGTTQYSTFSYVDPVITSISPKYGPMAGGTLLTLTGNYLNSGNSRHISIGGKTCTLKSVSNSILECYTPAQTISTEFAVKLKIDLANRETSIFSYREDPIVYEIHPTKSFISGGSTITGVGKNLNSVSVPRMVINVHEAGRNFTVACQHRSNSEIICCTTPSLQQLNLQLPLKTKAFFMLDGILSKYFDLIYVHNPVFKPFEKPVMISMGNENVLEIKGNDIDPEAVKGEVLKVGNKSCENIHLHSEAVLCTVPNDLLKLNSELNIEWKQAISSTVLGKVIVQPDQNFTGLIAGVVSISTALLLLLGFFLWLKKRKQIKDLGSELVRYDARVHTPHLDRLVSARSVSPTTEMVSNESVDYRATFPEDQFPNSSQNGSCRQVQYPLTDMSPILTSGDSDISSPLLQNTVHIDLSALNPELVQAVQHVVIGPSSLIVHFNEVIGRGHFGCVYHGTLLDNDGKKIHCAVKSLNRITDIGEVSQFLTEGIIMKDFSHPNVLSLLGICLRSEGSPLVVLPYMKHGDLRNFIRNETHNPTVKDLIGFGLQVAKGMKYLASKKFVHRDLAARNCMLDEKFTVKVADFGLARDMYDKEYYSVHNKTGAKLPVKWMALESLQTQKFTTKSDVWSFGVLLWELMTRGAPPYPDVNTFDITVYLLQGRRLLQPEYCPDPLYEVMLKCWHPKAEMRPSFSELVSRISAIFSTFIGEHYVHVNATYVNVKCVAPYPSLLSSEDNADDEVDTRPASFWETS
Tie2(h), sequence (Q02763 23-1124): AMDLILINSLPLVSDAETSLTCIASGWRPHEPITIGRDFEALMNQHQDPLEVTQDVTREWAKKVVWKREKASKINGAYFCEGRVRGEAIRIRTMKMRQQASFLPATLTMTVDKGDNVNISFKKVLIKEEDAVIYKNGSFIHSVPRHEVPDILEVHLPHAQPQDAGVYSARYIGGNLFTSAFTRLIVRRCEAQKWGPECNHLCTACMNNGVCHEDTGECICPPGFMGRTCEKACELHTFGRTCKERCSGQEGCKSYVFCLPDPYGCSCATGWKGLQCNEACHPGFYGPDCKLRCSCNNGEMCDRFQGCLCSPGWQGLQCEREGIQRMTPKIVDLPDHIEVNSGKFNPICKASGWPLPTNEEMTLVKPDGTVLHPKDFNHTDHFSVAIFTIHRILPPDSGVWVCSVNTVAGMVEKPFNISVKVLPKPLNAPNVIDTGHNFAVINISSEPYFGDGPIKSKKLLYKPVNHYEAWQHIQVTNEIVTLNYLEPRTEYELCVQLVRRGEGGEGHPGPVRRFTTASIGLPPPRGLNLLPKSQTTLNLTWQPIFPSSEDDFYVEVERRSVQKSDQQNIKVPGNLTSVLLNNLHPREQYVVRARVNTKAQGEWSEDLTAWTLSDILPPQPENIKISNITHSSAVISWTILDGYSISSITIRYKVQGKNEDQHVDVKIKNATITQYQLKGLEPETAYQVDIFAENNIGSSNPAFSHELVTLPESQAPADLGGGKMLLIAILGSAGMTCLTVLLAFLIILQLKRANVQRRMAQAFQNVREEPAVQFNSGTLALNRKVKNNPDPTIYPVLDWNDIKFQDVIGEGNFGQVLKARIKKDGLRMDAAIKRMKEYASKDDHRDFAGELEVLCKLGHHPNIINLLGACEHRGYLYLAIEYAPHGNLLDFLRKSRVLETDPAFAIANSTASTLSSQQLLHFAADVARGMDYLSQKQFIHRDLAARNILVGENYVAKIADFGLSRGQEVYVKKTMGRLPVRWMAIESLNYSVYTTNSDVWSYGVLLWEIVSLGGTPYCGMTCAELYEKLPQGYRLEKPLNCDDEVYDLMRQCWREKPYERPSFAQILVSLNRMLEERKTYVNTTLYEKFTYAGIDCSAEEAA

Compound	Activity at Protein Kinase Assays (% of control), PDK1(h) [1]	Activity at Protein Kinase Assays (% of control), Tie2(h) [2]	Activity at Protein Kinase Assays (% of control), Fes(h) [3]	Activity at Protein Kinase Assays (% of control), EphB4(h) [4]	Activity at Protein Kinase Assays (% of control), PKCζ(h) [5]	Activity at Protein Kinase Assays (% of control), JNK2α2(h) [6]	Activity at Protein Kinase Assays (% of control), Aurora-A(h) [7]	Activity at Protein Kinase Assays (% of control), Met(h) [8]
CN(C)c1nc2ccc1CCCCn1cc(c3ccccc31)C1=C(C(=O)NC1=O)c1cn(c3ccccc13)CCC2 [Cpd 1, 31-(dimethylamino)-5,15,25,32-tetraazaheptacyclo[28.2.2.1^5,12.1^18,25.0^6,11.0^13,17.0^19,24]hexatriaconta-1(32),6,8,10,12(36),13(17),18(35),19,21,23,30,33-dodecaene-14,16-dione]	115 % of control	110 % of control	107 % of control	89 % of control	98 % of control	96 % of control	109 % of control	121 % of control
O=C1NC(=O)C2=C1c1cn(c3ccccc13)CCCc1ccc(c(N3CCCC3)n1)CCCn1cc2c2ccccc21 [Cpd 7, 31-pyrrolidin-1-yl-5,15,25,30-tetraazaheptacyclo[27.2.2.1^5,12.1^18,25.0^6,11.0^13,17.0^19,24]pentatriaconta-1(31),6,8,10,12(35),13(17),18(34),19,21,23,29,32-dodecaene-14,16-dione]	100 % of control	107 % of control	130 % of control	100 % of control	116 % of control	110 % of control	106 % of control	132 % of control
O=C1NC(=O)C2=C1c1cn(c3ccccc13)CCCc1cc(nc(N3CCCC3)c1)CCCn1cc2c2ccccc21 [Cpd 6, 20-pyrrolidin-1-yl-4,14,19,26-tetraazaheptacyclo[24.6.1.1^7,14.1^18,22.0^2,6.0^8,13.0^27,32]pentatriaconta-1(33),2(6),7(35),8,10,12,18(34),19,21,27,29,31-dodecaene-3,5-dione]	107 % of control	96 % of control	139 % of control	109 % of control	99 % of control	114 % of control	111 % of control	129 % of control
CN(C)c1cc2cc(n1)CCCn1cc(c3ccccc31)C1=C(C(=O)NC1=O)c1cn(c3ccccc13)CCC2 [Cpd 2, 20-(dimethylamino)-4,14,19,26-tetraazaheptacyclo[24.6.1.1^7,14.1^18,22.0^2,6.0^8,13.0^27,32]pentatriaconta-1(33),2(6),7(35),8,10,12,18(34),19,21,27,29,31-dodecaene-3,5-dione]	104 % of control	109 % of control	133 % of control	103 % of control	105 % of control	106 % of control	111 % of control	132 % of control
